{"source": "patent US5734081A", "about": "“Arylthio compounds” (Warner-Lambert Company, priority 1995, dated 1998)", "assay_type_in_all_cases": "cell-based", "key": {"HIV-1IIIb [1]": {"test_system": "HIV-1IIIb", "experiment": "Anti-HIV activity, HIV-1IIIb in AA5 cells", "settings": "Human immunodeficiency virus 1; AA5, HIV-1IIIb", "description": "(§1) The compounds of the invention were also evaluated against various other HIV strains and cell lines utilizing the assay methodology described above. The compounds were additionally evaluated against clinical isolates of HIV strains."}, "HIV-1IIIb [2]": {"test_system": "HIV-1IIIb", "experiment": "Anti-HIV activity, HIV-1IIIb in MT-2 cells", "settings": "Human immunodeficiency virus 1, MT2; MT-2, HIV-1IIIb", "description": "as §1"}, "[3]": {"experiment": "CEM cell growth inhibition (XTT, noninfected cells)", "settings": "human, CEM Cell Assay, drug alone, read-out: IC50 (Inhibitory Concentration where drug alone inhibits cell growth)", "how_it_was_run": "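Uninfected CEM T4 lymphocytes were run alongside HIV-infected cultures. Compound in DMSO was diluted 1:200 in medium, then in half-log10 steps, and added to an equal volume of cells.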"}, "HIV-1VIHU": {"test_system": "HIV-1VIHU", "experiment": "Anti-HIV activity, clinical isolate HIV-1VIHU in PBL", "settings": "Human immunodeficiency virus 1", "description": "as §1"}, "HIV-1WOME": {"test_system": "HIV-1WOME", "experiment": "Anti-HIV activity, clinical isolate HIV-1WOME in PBL", "settings": "Human immunodeficiency virus 1", "description": "as §1"}, "HIV-1IIIb [4]": {"test_system": "HIV-1IIIb", "experiment": "Anti-HIV activity, HIV-1IIIb in CEM cells", "settings": "CEM, HIV-1IIIb, read-out: EC50", "description": "(§2) Yet another test system employed to determine antiviral activity is called the CEM cell assay.\n(§3) T4 lymphocytes (CEM cell line) are exposed to HIV at a virus to cell ratio approximately 0.05, and plated along with noninfected control cells in 96-well microliter plates.\n(§4) The candidate agent is dissolved in dimethyl sulfoxide (unless otherwise noted), then diluted 1:200 in cell culture medium. Further dilutions (half-log10) are prepared before adding to an equal volume of medium containing either infected or noninfected cells. Cultures are incubated at 37° in a 5% carbon dioxide atmosphere for 6 or 7 days. The tetrazolium salt, XTT, is added to all wells, and cultures are incubated to allow formazan color development by viable cells (J. National Cancer Institute, 1989;81:577-586). Individual wells are analyzed spectrophotometrically to quantitate formazan production, and in addition are viewed microscopically for detection of viable cells confirmation of protective activity.\n(§5) Drug-tested virus-infected cells are compared with drug-treated noninfected cells and with other appropriate controls (untreated infected and untreated noninfected cells, drug-contain wells without cells, etc.) on the same plate. Data are reviewed in comparison with other tests done at the same time and a determination about activity is made.\nas §1"}, "HIV-1WEIO": {"test_system": "HIV-1WEIO", "experiment": "Anti-HIV activity, clinical isolate HIV-1WEIO in PBL", "settings": "Human immunodeficiency virus 1", "description": "as §1"}, "HIV-1RF": {"test_system": "HIV-1RF", "experiment": "Anti-HIV activity, HIV-1RF in CEM cells", "settings": "Human immunodeficiency virus 1, CCRF-CEM; CEM, HIV-1RF; read-out: EC50", "description": "as §2, §3, §4, §5, §1"}, "SIV": {"test_system": "SIV", "experiment": "Antiviral activity, SIV in CEM cells", "settings": "Simian immunodeficiency virus, CCRF-CEM, read-out: EC50"}, "HIV-1 [5]": {"test_system": "HIV-1", "experiment": "HIV H9 cell assay, anti-HIV-1 activity", "settings": "Human immunodeficiency virus 1, H9, 168 h, read-out: EC50 (Effective Concentration which protects cells from viral cytopathic effects)", "source_text": "Another test system utilized to evaluate the invention compounds is called HIV H9 assay. The HIV H9 cell assay measures the inhibitor concentration required to suppress HIV-1 virus replication. In this system, viral growth occurs through multiple rounds of the life-cycle. Any suppression of the replication kinetics results in a geometric decrease in virus production. As a result, this assay is a sensitive means of measuring the ability of a compound to inhibit HIV-1 viral replication.\n(§6) The H9 T-cell line is batch infected with HIV virus at an M0I of 0.01. After 2 hours absorption, the cells are washed, resuspended in RPMI-1640/10% fetal calf serum, and seeded at […] of a 96-well plate. A duplicate plate of uninfected H9 cells is prepared for the cytotoxicity assay. Drugs are serially diluted 1/3.16 in DMSO, transferred to media at an 8× concentration, and then added to the cultures in triplicate. The final DMSO concentration of 0.002 (0.2%).\n(§7) Viral production is measured by RT assay and cytotoxicity is measured by XTT assay at 7 days post-infection. The RT assay is performed as a modification of Borroto-Esoda and Boone, J. Virol., 1991;65:1952-1959 and quantitated using a Molecular Dynamics Phosphoimager with Imagequant software. The XTT assay is performed as a modification of Roehm, et al., J. Immuno. Methods., 1991;142:257-265 and quantitated using a molecular Devices Thermomax plate reader with Softmax software.\n(§8) Data is electronically transferred to a Microsoft Excell spreadsheet for analysis. The RT assay values equivalent to 50% and 90% inhibition of virus production are calculated from the untreated controls. The concentrations of inhibitor required to produce these values (IC50 and IC90) are interpolated from data points flanking these RT activities. The XTT assay values equivalent to 50% cytotoxicity are calculated from the untreated controls. The concentrations of inhibitor required to produce this value are interpolated from data points flanking these XTT values."}, "[6]": {"experiment": "H9 cell cytotoxicity (XTT assay, uninfected cells)", "settings": "human, drug alone, read-out: IC50 (Inhibitory Concentration where drug alone inhibits cell growth)", "description": "as §6, §7, §8"}, "HIV-1 [7]": {"test_system": "HIV-1", "experiment": "CEM cell assay, anti-HIV-1 activity", "settings": "Human immunodeficiency virus 1, CCRF-CEM, HIV-1, 6 or 7 days, read-out: EC50 (Effective Concentration which protects cells from viral cytopathic effects)", "how_it_was_run": "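CEM T4 lymphocytes infected with HIV at virus:cell ratio ~0.05, then treated with half-log10 dilutions of compound from DMSO stock and incubated 6 or 7 days at 37° in 5% CO2. Protection from virus-induced cell killing was read by XTT formazan absorbance and microscopy versus drug-treated noninfected cells and untreated controls.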"}, "[8]": {"settings": "Human immunodeficiency virus 1, CCRF-CEM"}}, "data": [{"smiles": "CC(=O)Nc1ccc(SSc2ccc(NC(C)=O)cc2C(N)=O)c(C(N)=O)c1", "note": "[Example 9, 2,2'-Dithiobis(5-acetylamino)benzamide]", "values": [{"measurement": "EC50", "setting": "HIV-1IIIb [1]", "value": 3.5, "unit": "µM"}, {"measurement": "EC50", "setting": "HIV-1IIIb [2]", "value": 9.4, "unit": "µM"}, {"measurement": "CC50", "setting": "[3]", "value": "> 120", "unit": "µM"}, {"measurement": "EC50", "setting": "HIV-1VIHU", "value": 5.2, "unit": "µM"}, {"measurement": "EC50", "setting": "HIV-1WOME", "value": 5.7, "unit": "µM"}, {"measurement": "EC50", "setting": "HIV-1IIIb [4]; [8]", "value": 0.4, "unit": "µM"}, {"measurement": "EC50", "setting": "HIV-1WEIO", "value": 7.5, "unit": "µM"}, {"measurement": "EC50", "setting": "HIV-1RF", "value": 0.4, "unit": "µM"}, {"measurement": "EC50", "setting": "SIV", "value": 2.1, "unit": "µM"}, {"measurement": "EC50", "setting": "HIV-1 [5]", "value": 1.7, "unit": "µM"}, {"measurement": "CC50 at 168 h", "setting": "[6]", "value": "> 100", "unit": "µM"}, {"measurement": "EC50", "setting": "HIV-1 [7]", "value": 5.2, "unit": "µM"}]}, {"smiles": "NS(=O)(=O)c1ccc(NC(=O)c2ccccc2SSc2ccccc2C(=O)Nc2ccc(S(N)(=O)=O)cc2)cc1", "note": "[Example 1]", "values": [{"measurement": "EC50", "setting": "HIV-1IIIb [1]", "value": 0.9, "unit": "µM"}, {"measurement": "EC50", "setting": "HIV-1IIIb [2]", "value": 2.6, "unit": "µM"}, {"measurement": "CC50", "setting": "[3]", "value": "> 120", "unit": "µM"}, {"measurement": "EC50", "setting": "HIV-1VIHU", "value": 3.6, "unit": "µM"}, {"measurement": "EC50", "setting": "HIV-1WOME", "value": 4, "unit": "µM"}, {"measurement": "EC50", "setting": "HIV-1IIIb [4]", "value": 4.6, "unit": "µM"}, {"measurement": "EC50", "setting": "HIV-1IIIb [4]; [8]", "value": 2.8, "unit": "µM"}, {"measurement": "EC50", "setting": "HIV-1WEIO", "value": 3.5, "unit": "µM"}, {"measurement": "EC50", "setting": "HIV-1RF", "value": 2.3, "unit": "µM"}, {"measurement": "EC50", "setting": "SIV", "value": 14.6, "unit": "µM"}, {"measurement": "EC50", "setting": "HIV-1 [5]", "value": 0.7, "unit": "µM"}, {"measurement": "CC50 at 168 h", "setting": "[6]", "value": 36, "unit": "µM"}, {"measurement": "EC50", "setting": "HIV-1 [7]", "value": 2.9, "unit": "µM"}]}]}
